Results taken from US20220251039A1, “Diaryl-B-Lactam Compound and Preparation Method and Pharmaceutical Use Thereof” (Fudan University, priority 2016, published 2022).
“Also recorded” adds a separate entry of the source.

Tests used:
KM mice = assay: Acute toxicity assay; type: in vivo
Protocol: KM mice were housed individually in a specific pathogen free facility. Groups of mice (n=10 per group, half male and half female) were injected intraperitoneally once with various dosages of 69 (95, 70, 50, 35, 25 mg/kg), 70 (500, 425, 350, 275, 200 mg/kg), 97 (275, 200, 150, 125 and 100 mg/kg) or vehicle (8.3% cremohorp EL and 8.3% alcohol in PBS) as negative control, respectively. 69, 70 and 97 was dissolved in cremeohore EL and alcohol mixture (1:1, v/v) and further diluted with PBS (1:5, v/v). The death of mice were monitored daily and recorded up to 14 days after injection.

[1] = system: Bax, p53 and cleaved-PARP; assay: Expression level of apoptosis associated proteins; type: cell-based, human; settings: HeLa cells, Western blot and qPCR
Protocol: A. Western blotting: After being treated with candidate compound, cells were harvested and lysed. Then, the lysate was isolated by ultracentrifuge and quantified by BCA assay according to the protocol. After being denatured, equivalent protein of each sample was separated by SDS-PAGE gel and wet-transferred onto […] nitrocellulose membrane. After being blocked by PBS containing 5% skim milk, the membrane was incubated with primary antibody at 4° C. overnight and secondary antibody at room temperature for 2 h and then visualized by enhanced chemiluminescence kit (Thermo Fisher, USA), sequentially.
(§1) B. Quantitative PCR assay: HeLa cells were treated with 69, 70 or 97. The expression level of mRNA of target proteins was tested with qPCR kit (Takara).

[2] = system: p-histone H3, cyclin B1 and BuBR1; assay: Cell cycle associated proteins assay; type: cell-based, human; settings: HeLa cells, 24 h, Western blot and qPCR
Protocol: A. HeLa cells were treated with 69, 70, 97 or DMSO for 24 h. After being harvested, the cells were lysed, and the concentrations of total protein were determined by BCA protein assay kit (Beyotime, China). […] The membrane was blocked with 5% BSA in TBST for 1.5 h, then incubated overnight with specific primary antibodies (Proteintech) at 4° C. After being washed three times by TBST, the membrane was incubated with specific secondary antibodies (Abnova, Taipei, China) at room temperature for 2 h. Finally, chemiluminescent reagents (Millipore) were employed to detect the protein bands.
as §1

MDA-MB-231 cells = assay: Colony formation assay; type: cell-based, human; settings: 48 h treatment, 7-10 days growth
Protocol: 1000 MDA-MB-231 cells per well were seeded into 6-well plate at a single cell density and were cultured at 37° C. for 48 h. After being treated with indicated concentrations of 69, 70 and 97, CA-4 as positive control, or diluent (0.2% DMSO) as negative control for 48 h, the agents containing medium was replaced by fresh medium to allow cell growth for additional 7-10 days. Then the cells were fixed with methanol and stained with gentian violet for 30 min. The number of colonies which consisted of more than 50 cells were counted. The results were indicated as mean values from three independent determinations.

tubulin [3] = assay: Immunofluorescent analysis of tubulin morphology; type: cell-based, human; settings: SKOV-3 cells, 24 h
Protocol: After treatment with diluent (0.2% DMSO) or tested compounds at indicated concentrations for 24 h, SKOV-3 cells were fixed with methanol, permeabilized with 0.1% Triton X-100 in PBS and blocked by goat serum. Then the cells were incubated with a-tubulin antibody at 4° C. overnight, followed by incubation with Alexa 488 labeled secondary antibody (Jackson ImmunoResearch) at RT for 1 h. After being stained with DAPI, cells were examined and photographed with a Leica SP5 co-focal fluorescence microscope.

tubulin [4] = assay: Immunoblotting analysis of polymerized/depolymerized tubulin; type: cell-based, human; settings: Hela cells, 6 h
Protocol: After being treated with diluent (0.2% DMSO), tested compound, CA-4 or PTX for 6 h, Hela cells were lysed with microtubulestabilizing buffer, containing 100 mM PIPES, pH 6.8, 1 mM MgCl2, 2 mM EGTA, 0.5% NP-40, 2 M glycerol, 5 μM PTX and protease inhibitors cocktail (Roche), and the lysate was centrifuged at 15,000 rpm for 15 min. Supernatant containing depolymerized tubulin was carefully collected, whereas pellet (polymerized tubulin) was further dissolved in SDS-lysis buffer (Beyotime, China). Equal amounts of supernatant and dissolved pellet were subjected to immunoblotting analysis as described above using a tubulin antibody (Proteintech).

A2780 cells = assay: Xenografts tumor growth assay in nude mice; type: in vivo, Balb/c nude mice; settings: A2780 xenograft
Protocol: 6 weeks old female Balb/c nude mice were purchased from Shanghai Slac Laboratory Animal Co. Ltd. (Shanghai, China). 2*10^6 A2780 cells suspended in 0.2 mL PBS per mouse was injected subcutaneously into the nude mice. […] Administration of agents or vehicle, or agents and measurement of tumor volumes with a digital caliper was done once every 2 days. Tumor volumes were calculated as volume=shortest diameter (W)^2*longest diameter (L)*0.52. When the average tumor volumes of vehicle treated group reached 2000 mm^3 in diameter, the mice were sacrificed and the tumors were isolated and weighed. Visceral organs of the mice as well as solid tumors were further analyzed by H&E staining.

cellular apoptosis = assay: Cell apoptosis analysis (Annexin V/PI); type: cell-based; settings: 48 h, Annexin-V/PI flow cytometry
Protocol: Cell apoptosis was detected using FITC Annexin V Apoptosis Detection Kit (BD Biosciences) according to manufacturer's instructions. Briefly, cells were incubated with indicated concentrations of 69, 70 and 97, CA-4 as positive control or diluent (0.2% DMSO) as negative control for 48 h. Then the cells were harvested, washed twice with PBS, and re-suspended in binding buffer. After being stained with Annexin-V and PI for 15 min in the dark place, cells were subjected to flow cytometry (Cytomics FC 500 MPL, Beckman Coulter) analysis. The results were indicated as mean values from three independent determinations.

COc1ccc([C@H]2[C@@H](C)C(=O)N2c2cc(OC)c(OC)c(OC)c2)cc1O [Compound 70, (3R,4R)-4-(3-hydroxy-4-methoxyphenyl)-3-methyl-1-(3,4,5-trimethoxyphenyl)azetidin-2-one]
No. of dead mice 5-14 days (KM mice; 200 mg/kg i.p. once): 0
No. of dead mice 1 day (KM mice; 200 mg/kg i.p. once): 0
No. of dead mice 2 days (KM mice; 200 mg/kg i.p. once): 0
No. of dead mice 3 days (KM mice; 200 mg/kg i.p. once): 0
No. of dead mice 4 days (KM mice; 200 mg/kg i.p. once): 0
No. of dead mice Total death (KM mice; 200 mg/kg i.p. once): 0
Survival (%) on day 14 (KM mice; 200 mg/kg i.p. once): 100%
No. of dead mice 5-14 days (KM mice; 275 mg/kg i.p. once): 1
No. of dead mice 1 day (KM mice; 275 mg/kg i.p. once): 0
No. of dead mice 2 days (KM mice; 275 mg/kg i.p. once): 0
No. of dead mice 3 days (KM mice; 275 mg/kg i.p. once): 0
No. of dead mice 4 days (KM mice; 275 mg/kg i.p. once): 1
No. of dead mice Total death (KM mice; 275 mg/kg i.p. once): 2
Survival (%) on day 14 (KM mice; 275 mg/kg i.p. once): 80%
No. of dead mice 5-14 days (KM mice; 350 mg/kg i.p. once): 0
No. of dead mice 1 day (KM mice; 350 mg/kg i.p. once): 0
No. of dead mice 2 days (KM mice; 350 mg/kg i.p. once): 0
No. of dead mice 3 days (KM mice; 350 mg/kg i.p. once): 1
No. of dead mice 4 days (KM mice; 350 mg/kg i.p. once): 0
No. of dead mice Total death (KM mice; 350 mg/kg i.p. once): 1
Survival (%) on day 14 (KM mice; 350 mg/kg i.p. once): 90%
No. of dead mice 5-14 days (KM mice; 425 mg/kg i.p. once): 0
No. of dead mice 1 day (KM mice; 425 mg/kg i.p. once): 0
No. of dead mice 2 days (KM mice; 425 mg/kg i.p. once): 0
No. of dead mice 3 days (KM mice; 425 mg/kg i.p. once): 3
No. of dead mice 4 days (KM mice; 425 mg/kg i.p. once): 0
No. of dead mice Total death (KM mice; 425 mg/kg i.p. once): 3
Survival (%) on day 14 (KM mice; 425 mg/kg i.p. once): 70%
No. of dead mice 5-14 days (KM mice; 500 mg/kg i.p. once): 0
No. of dead mice 1 day (KM mice; 500 mg/kg i.p. once): 0
No. of dead mice 2 days (KM mice; 500 mg/kg i.p. once): 0
No. of dead mice 3 days (KM mice; 500 mg/kg i.p. once): 4
No. of dead mice 4 days (KM mice; 500 mg/kg i.p. once): 0
No. of dead mice Total death (KM mice; 500 mg/kg i.p. once): 4
Survival (%) on day 14 (KM mice; 500 mg/kg i.p. once): 60%
expression of Bax, p53 and cleaved-PARP [1]: significantly promote the expression of the proapoptotic protein Bax, the tumor suppressor gene p53, and the cleaved DNA repair enzyme; also recorded: significantly induce the expression of Bax, p53 and cleaved-PARP
expression of p-histone H3, cyclin B1 and BuBR1 [2]: significantly promote the expression of phosphorylated histone H3, cyclin B1, and mitotic checkpoint protein BuBR1
colony formation (MDA-MB-231 cells): significantly inhibit the formation of colonies of cancer cells
tubulin assembly (immunofluorescence) (tubulin [3]): significantly inhibit tubulin aggregation; also recorded: strongly inhibit tubulin assembly in cancer cells
polymerized tubulin (immunoblotting) (tubulin [4]): significantly inhibit tubulin aggregation; also recorded: dramatically reduction of polymerized tubulin
tumor growth in vivo (A2780 cells; i.p. once every 2 days, 69 7.5 mg/kg, 70 12.5 mg/kg, 97 4 or 8 mg/kg): significantly inhibit tumor growth in vivo; also recorded: anti-tumor activities in vivo
H&E staining of liver, kidney and spleen (A2780 cells; treated groups): no abnormal areas are observed in tissue staining of liver, kidney and spleen; also recorded: no detectable abnormalities were observed in liver, kidney and spleen
H&E staining of tumor sections (necrosis) (A2780 cells; treated groups): cause tumor tissue to produce necrotic areas; also recorded: extensive areas of necrosis or cell death
cellular apoptosis (cellular apoptosis): significantly promote apoptosis; also recorded: significantly induce cellular apoptosis
